Test results from the supplement of paper PMC5579334.

Key:
HS-PSS [1] = assay: drug sensitivity score (DSS, CellTox-Green cytotoxicity, 72 h) (DSS (dimensionless)); higher = more cytotoxic; extreme values may be limits of the assay
How it was run: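 MPNST cell lines and primary human Schwann cells were grown for 72 h at 37 °C in 384-well plates containing five 10-fold compound dilutions. CellTox-Green, added before seeding at a final 1:1000 dilution, gave fluorescence from DNA released by disrupted cells, and signals were scaled to vehicle and positive-control wells. Curves were fitted with a four-parameter logistic model. Drug sensitivity score and relative IC50 come from these fits, with IC50 censored at the top concentration.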

YST-1 [2] = assay: % inhibition of CellTiter-Glo viability at highest tested concentration (72 h), relative to DMSO and benzethonium chloride controls; higher = more inhibition
How it was run: (§1)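 For this screen, 384-well plates were preprinted with each compound at five concentrations in 10-fold steps and seeded with MPNST cell lines or primary human Schwann cells at 750–1000 cells per well. Incubation lasted 72 h at 37 °C, 5% CO2, and CellTiter-Glo ATP luminescence, scaled between vehicle and positive-control wells and averaged over duplicates where available, served as viability. Logistic fits with four parameters were applied. Relative IC50 (censored at the top concentration) and drug sensitivity score derive from these fits, and percent inhibition is at the top concentration.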

HS-PSS [3] = assay: as above
How it was run: as §1

HS-Sch-2 [4] = assay: as above
How it was run: as §1

YST-1 [5] = assay: drug sensitivity score (DSS, CellTiter-Glo viability, 72 h) (DSS (dimensionless)); higher = more sensitive; extreme values may be limits of the assay
How it was run: as §1

HS-PSS [6] = assay: as above
How it was run: as §1

HS-Sch-2 [7] = assay: as above
How it was run: as §1

| Compound | drug sensitivity score (HS-PSS [1]) | % inhibition (YST-1 [2]) [%] | % inhibition (HS-PSS [3]) [%] | % inhibition (HS-Sch-2 [4]) [%] | drug sensitivity score (YST-1 [5]) | drug sensitivity score (HS-PSS [6]) | drug sensitivity score (HS-Sch-2 [7]) |
| --- | --- | --- | --- | --- | --- | --- | --- |
| Cc1cccc(-c2[nH]c(CNc3ccccc3F)nc2-c2ccc3ncnn3c2)n1 [TEW-7197] (max concentration tested 2500 nM) | 0 | -10.6 | 23.2 | 13.1 | 0 | 1.89 | 0.08 |
| Nc1nc(N)c2nc(-c3cccc(O)c3)c(-c3cccc(O)c3)nc2n1 [TG100-115] (max concentration tested 10000 nM) | 0 | 20.9 | 9.07 | 10.8 | 1.38 | 0 | 0 |
| NC(=O)Nc1sc(-c2ccc(F)cc2)cc1C(N)=O [TPCA-1] (max concentration tested 25000 nM) | 0 | 46.1 | 41 | 17.7 | 3.91 | 3.59 | 1.36 |
| Clc1ccccc1C(c1ccccc1)(c1ccccc1)n1cccn1 [TRAM-34] (max concentration tested 1000 nM) | 0 | 3.42 | 13.4 | 15.5 | 0 | 0.59 | 0.38 |
| Cn1ncnc1[C@H]1c2n[nH]c(=O)c3cc(F)cc(c23)N[C@@H]1c1ccc(F)cc1 [Talazoparib] (max concentration tested 1000 nM) | 0 | 61.3 | 21.9 | 25.4 | 15.5 | 3.37 | 1.84 |
| C[C@@H]1CN(Cc2ccc(F)cc2)[C@@H](C)CN1C(=O)c1cc2c(C(=O)C(=O)N(C)C)cn(C)c2cc1Cl [Talmapimod] (max concentration tested 10000 nM) | 0 | 37.4 | 13.9 | -10 | 6.19 | 0.11 | 0 |
| O[C@H]1CC[C@H](Nc2ncc3nc(Nc4c(F)cc(F)cc4F)n([C@H]4CCOC4)c3n2)CC1 [Tanzisertib] (max concentration tested 10000 nM) | 0 | 11.6 | -0.16 | -2.81 | 1.56 | 0 | 0 |
| Cc1nc(-c2cn3c(n2)-c2ccc(-c4cnn(C(C)(C)C(N)=O)c4)cc2OCC3)n(C(C)C)n1 [Taselisib] (max concentration tested 1000 nM) | 0 | 66.6 | 26.4 | 18.1 | 11.9 | 0.7 | 0.87 |
| COc1cccc2c1c(O)c(C(=O)N(C)c1ccc(C(F)(F)F)cc1)c(=O)n2C [Tasquinimod] (max concentration tested 10000 nM) | 0 | 20.7 | 11.8 | 8.66 | 3.88 | 0.69 | 0 |
| CCN(c1cc(-c2ccc(CN3CCOCC3)cc2)cc(C(=O)NCc2c(C)cc(C)[nH]c2=O)c1C)C1CCOCC1 [Tazemetostat] (max concentration tested 10000 nM) | 0 | 0.37 | 10.9 | 12.6 | 0 | 0.52 | 0.07 |
| CNC(=O)c1cc(COc2nnc(Nc3ccc(Cl)cc3)c3ccoc23)ccn1 [Telatinib] (max concentration tested 10000 nM) | 0 | 6.98 | 5.71 | 8.79 | 0.77 | 0 | 0 |
| Cn1nnc2c(C(N)=O)ncn2c1=O [Temozolomide] (max concentration tested 100000 nM) | 0 | 11.6 | 8.55 | 20.4 | 0.08 | 0 | 1.67 |
| O=c1sn(-c2cccc3ccccc23)c(=O)n1Cc1ccccc1 [Tideglusib] (max concentration tested 3000 nM) | 0 | 3.93 | 6.62 | 2.01 | 0 | 0 | 0 |
| Cc1cc(Nc2cc(N3CCN(C)CC3)nc(Sc3ccc(NC(=O)C4CC4)cc3)n2)n[nH]1 [Tozasertib] (max concentration tested 10000 nM) | 0 | 45.5 | 31.3 | 61.5 | 12.9 | 4.85 | 8.18 |
| NC(=S)N/N=C/c1ncccc1N [Triapine] (max concentration tested 10000 nM) | 0.94 | 63.8 | 65.6 | 63.9 | 2.82 | 4.81 | 5.68 |
| COC(=O)c1ccc2c(c1)[nH]c1ncnc(NCCCN3CCCCC3)c12 [UM729] (max concentration tested 10000 nM) | 0 | 35.4 | 13.2 | 29 | 3.85 | 0.05 | 1.25 |

| Compound | drug sensitivity score (HS-PSS [1]) | % inhibition (YST-1 [2]) [%] | % inhibition (HS-PSS [3]) [%] | % inhibition (HS-Sch-2 [4]) [%] | drug sensitivity score (YST-1 [5]) | drug sensitivity score (HS-PSS [6]) | drug sensitivity score (HS-Sch-2 [7]) |
| --- | --- | --- | --- | --- | --- | --- | --- |
| O=C(O)CSc1cc(NS(=O)(=O)c2ccc(Br)cc2)c2ccccc2c1O [UMI-77] (max concentration tested 100000 nM) | 4.6 | 102 | 101 | 101 | 18.2 | 6.44 | 14.4 |
| CCCCNc1ncc(C(=O)NCc2ccc(-n3ccnc3)cc2)c(NC2CCC(O)CC2)n1 (configuration not stated) [UNC2881] (max concentration tested 2500 nM) | 0 | 38.9 | 37 | 9.68 | 3.6 | 3.51 | 0 |
| NC(=O)c1cccc(-c2cccc(OC(=O)NC3CCCCC3)c2)c1 [URB597] (max concentration tested 1000 nM) | 0 | -6.54 | 18.8 | 0.43 | 0 | 1.09 | 0 |
| CC(C)Nc1cc(-c2c[nH]c(C(=O)N[C@H](CO)c3cccc(Cl)c3)c2)c(Cl)cn1 [Ulixertinib] (max concentration tested 10000 nM) | 0 | 41.1 | 53 | 68.7 | 3.93 | 2.52 | 6.76 |
| Cn1ncc(Cl)c1-c1cc(C(=O)N[C@H](CN)Cc2ccc(F)c(F)c2)oc1Cl [Uprosertib] (max concentration tested 10000 nM) | 0 | 21.9 | 9.97 | 6.41 | 3.04 | 0 | 0 |
| Oc1ncc(N(CCCl)CCCl)c(O)n1 [Uramustine] (max concentration tested 10000 nM) | 0 | 1.38 | -0.55 | 3 | 0 | 0 | 0 |
| CS(=O)(=O)c1ccc(-c2cnc(N)c(C(=O)Nc3ccccc3)n2)cc1 [VE-821] (max concentration tested 10000 nM) | 0 | 7.49 | 10.4 | 5.62 | 0 | 0.05 | 0 |
| O=C(O)CC1CC(c2ccccc2)=NO1 (configuration not stated) [VGX-1027] (max concentration tested 10000 nM) | 0 | 4 | 4.47 | 13.4 | 0 | 0 | 0.12 |
| CNC(=O)c1ccccc1Nc1cc(Nc2ccc(N3CCOCC3)cc2OC)ncc1C(F)(F)F [VS-4718] (max concentration tested 10000 nM) | 0.03 | 45.2 | 68.6 | 50.4 | 4.99 | 3.23 | 3.18 |
| O=c1ncn2nc(Sc3ccc(F)cc3F)ccc2c1-c1c(Cl)cccc1Cl [VX 745] (max concentration tested 10000 nM) | 0 | 31.1 | 21.1 | 22.6 | 3.73 | 0.47 | 0.7 |
| CCCC(CCC)C(=O)O [Valproic acid] (max concentration tested 1000000 nM) | 0 | 44.2 | 6.13 | 2.29 | 2.34 | 0 | 0 |
| C[C@@H]1COC(Nc2ccc3ncnc(Nc4ccc(OCc5nccs5)c(Cl)c4)c3c2)=N1 [Varlitinib] (max concentration tested 10000 nM) | 0 | 27.7 | 42 | 30.6 | 3.23 | 5.07 | 2.41 |
| CC1(C)CCC(CN2CCN(c3ccc(C(=O)NS(=O)(=O)c4ccc(NCC5CCOCC5)c([N+](=O)[O-])c4)c(Oc4cnc5[nH]ccc5c4)c3)CC2)=C(c2ccc(Cl)cc2)C1 [Venetoclax] (max concentration tested 1000 nM) | 0 | 16.4 | -9.6 | 0.97 | 0.21 | 0 | 0 |
| O=C(/C=C\n1cnc(-c2cc(C(F)(F)F)cc(C(F)(F)F)c2)n1)NNc1ccccn1 [Verdinexor] (max concentration tested 1000 nM) | 0.01 | 88.9 | 60 | 97 | 8.71 | 5.78 | 9.76 |
| CCn1c(=O)c(-c2cc[nH]n2)cc2c(C)nc(N)nc21 [Voxtalisib] (max concentration tested 10000 nM) | 0 | 86.5 | 48.4 | 64.5 | 9.29 | 3.33 | 4.83 |
